The values below come from ChEMBL document CHEMBL1138740, “Design of 2,5-dimethyl-3-(6-dimethyl-4-methylpyridin-3-yl)-7-dipropylaminopyrazolo[1,5-a]pyrimidine (NBI 30775/R121919) and structure--activity relationships of a series of potent and orally active corticotropin-releasing factor receptor antagonists” (J Med Chem, 2004).

Series [1] concerns the target T1, Corticotropin-releasing factor receptor 1 (Homo sapiens, UniProt P34998).
T1 sequence (P34998 whole entry): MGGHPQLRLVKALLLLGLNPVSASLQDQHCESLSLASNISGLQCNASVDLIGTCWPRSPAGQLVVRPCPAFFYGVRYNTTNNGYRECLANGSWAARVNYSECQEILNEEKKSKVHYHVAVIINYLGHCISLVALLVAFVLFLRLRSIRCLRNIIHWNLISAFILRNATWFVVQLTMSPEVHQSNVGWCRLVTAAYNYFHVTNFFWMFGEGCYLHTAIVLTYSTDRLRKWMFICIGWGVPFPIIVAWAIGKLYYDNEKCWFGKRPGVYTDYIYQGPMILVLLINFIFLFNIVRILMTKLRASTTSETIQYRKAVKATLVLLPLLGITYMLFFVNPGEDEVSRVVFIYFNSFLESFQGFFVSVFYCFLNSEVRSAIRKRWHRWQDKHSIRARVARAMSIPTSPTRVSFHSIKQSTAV
The experiment in a line: Inhibition of CRF-stimulated cAMP production in CHO cells expressing human CRF1 receptor. (Cyclic AMP is a second messenger, typically raised through Gs and lowered through Gi signalling.)

Series [2] concerns the target T1, Corticotropin-releasing factor receptor 1. The experiment in a line: Inhibition of [125I]o-CRF binding to CHO cells expressing human CRF1 receptor. It is filed as cell-based.
A short description of series [3]: Plasma volume distribution determined in dawley rats. It is filed as ADME, organism-based. The note with it: Sprague-Dawley, rat.
The nature of series [4]: Plasma clearance determined in dawley rats. It is filed as ADME, organism-based. The note with it: Sprague-Dawley, rat.
Series [5] in a line: Plasma half-life determined in dawley rats. The note with it: Sprague-Dawley, rat. It is filed as ADME.

The IC50 is the point on the concentration scale where inhibition reaches its midpoint. The compound `CCCN(CCOC)c1cc(C)nc2c(-c3ccc(OC)cc3OC)c(C)nn12` showed an IC50 in series [1] of 76 nM. As a reminder, the Ki is the equilibrium dissociation constant of an inhibitor or competing ligand from its target. High values mean lower affinity, low ones higher affinity. In turn, `CCCCN(CC)c1cc(C)nc2c(-c3cnc(N(C)C)cc3C)c(C)nn12` gave a Ki in series [2] of 2.6 nM. On the same count and under the same terms, the value for `CCC(COC)Nc1cc(C)nc2c(-c3cnc(N(C)C)cc3C)c(C)nn12` (stereo not given) was 260 nM; that for `CCCN(CCC)c1c(Cl)c(C)nc2c(-c3cnc(N(C)C)cc3C)c(C)nn12` was 39 nM; that for `CCCN(c1ccccc1)c1cc(C)nc2c(-c3cnc(N(C)C)cc3C)c(C)nn12` was 8.8 nM.

Compound `CCCN(CCC)c1cc(C)nc2c(-c3ncc(N(C)C)cc3C)c(C)nn12` displayed an IC50 in series [1] of 160 nM.

As to `CCN(Cc1cccc(C)c1)c1cc(C)nc2c(-c3cnc(N(C)C)cc3C)c(C)nn12`, in series [2], the Ki is 2.4 nM. On the same count and under the same terms, then `CCN(Cc1ccc(Cl)c(Cl)c1)c1cc(C)nc2c(-c3cnc(N(C)C)cc3C)c(C)nn12`, with 2.5 nM; and `CCN(Cc1ccc(C)cc1)c1cc(C)nc2c(-c3cnc(N(C)C)cc3C)c(C)nn12`, with 2.3 nM.

With `CCN(Cc1ccccc1F)c1cc(C)nc2c(-c3cnc(N(C)C)cc3C)c(C)nn12`, the Ki in series [2] worked out at 3.4 nM. The same measure, in the same setting: the value for `CCC(CC)Nc1cc(C)nc2c(-c3cnc(N(C)C)cc3C)c(C)nn12` was 9.4 nM. In turn, `CCCN(CCC)c1cc(C)nc2c(-c3c(C)cc(N(C)C)nc3C)c(C)nn12` registered a Ki in series [2] of 5.2 nM. The IC50 in series [1] is 40 nM. `CCCCN(Cc1ccccc1)c1cc(C)nc2c(-c3cnc(N(C)C)cc3C)c(C)nn12` returned a Ki in series [2] of 2.9 nM. Regarding `CCCC(CCC)Nc1cc(C)nc2c(-c3cnc(N(C)C)cc3C)c(C)nn12`, in series [2], the Ki was 4.8 nM.

As for `CCCN(CCC)c1cc(C)nc2c(-c3ccc(N(C)C)nc3)c(C)nn12`, in series [2], the Ki turned out to be 4.2 nM. The compound also showed an IC50 in series [1] of 110 nM. `Cc1cc(NC(C)CCC(C)C)n2nc(C)c(-c3cnc(N(C)C)cc3C)c2n1` (stereo not given) returned a Ki in series [2] of 13 nM. Still for that read-out and setting: the value for `CCCN(CC1CC1)c1cc(C)nc2c(-c3cnc(N(C)C)cc3C)c(C)nn12` was 2.6 nM. One may read the Vd as the apparent volume that relates the amount in the body to the concentration in plasma or blood. Low values mean little distribution into tissue, high ones wide distribution into tissue. In general, clearance refers to the rate of elimination divided by the concentration. A lower clearance goes with a low capacity for elimination. The half-life is the time in which the quantity being followed falls by half. In series [3], `CCCN(CCC)c1cc(C)nc2c(-c3cnc(N(C)C)cc3C)c(C)nn12` displayed a Vd of 16.7 L/kg. Besides, the clearance in series [4] is 112 mL/min/kg. For the same compound, in series [5], the half-life is 1.7 h. In the case of `CCCN(CCC)c1cc(C)nc2c(-c3cnc(C)cc3C)c(C)nn12`, the affinity in series [2] corresponds to a Ki of 7.3 nM. That is a single-digit nanomolar value. In turn, `CCCCN(CCCC)c1cc(C)nc2c(-c3cnc(N(C)C)cc3C)c(C)nn12` returned a Ki in series [2] of 4.2 nM. In turn, `CCN(Cc1ccccc1C)c1cc(C)nc2c(-c3cnc(N(C)C)cc3C)c(C)nn12` displayed a Ki in series [2] of 2.4 nM.

`COCC(Cc1ccccc1)Nc1cc(C)nc2c(-c3cnc(N(C)C)cc3C)c(C)nn12` (stereo not given) gave a Ki in series [2] of 6.5 nM. Same read-out and setting: then `CCCN(CCC)c1cc(C)nc2c(-c3ccc(C)nc3)c(C)nn12`, with 21 nM; and `CCCN(Cc1ccc2ccccc2c1)c1cc(C)nc2c(-c3cnc(N(C)C)cc3C)c(C)nn12`, with 15 nM; and `CCCN(CCC)c1c(Br)c(C)nc2c(-c3cnc(N(C)C)cc3C)c(C)nn12`, with 240 nM. With `CCCN(Cc1cccc(OC)c1)c1cc(C)nc2c(-c3cnc(N(C)C)cc3C)c(C)nn12`, in series [2], the Ki is 24 nM. Same read-out and setting: then `CCN(Cc1ccc(Cl)cc1)c1cc(C)nc2c(-c3cnc(N(C)C)cc3C)c(C)nn12`, with 1.3 nM; and `CCCN(Cc1ccccc1)c1cc(C)nc2c(-c3cnc(N(C)C)cc3C)c(C)nn12`, with 5.2 nM. On to `Cc1cc(N(Cc2ccccc2)C(C)C)n2nc(C)c(-c3cnc(N(C)C)cc3C)c2n1`, for which, in series [2], the affinity, expressed as Ki, was 11 nM. As for `CCCN(CCC)c1cc(C)nc2c(-c3ccc(N(C)C)nc3C)c(C)nn12`, in series [2], the Ki was 2.2 nM. In series [1], this compound yielded a half-inhibitory concentration (IC50) of 190 nM. In series [2], `Cc1cc(NC(C)C(C)C)n2nc(C)c(-c3cnc(N(C)C)cc3C)c2n1` (stereo not given) returned a Ki of 17 nM.

On to `CCCN(CCC)c1c(F)c(C)nc2c(-c3cnc(N(C)C)cc3C)c(C)nn12`, for which the affinity in series [2], expressed as Ki, was 5.6 nM. Besides, the IC50 in series [1] is 50 nM. The corresponding values for `CCCN(CC1CC1)c1cc(C)nc2c(-c3ccc(Cl)cc3Cl)c(C)nn12` are 1.6 nM and 29 nM.
